# Results published in patent US20170281710A1, “USE OF INHIBITORS OF BINDING BETWEEN A PAR-1 RECEPTOR AND ITS LIGANDS FOR THE TREATMENT OF GLIOMA” (University of Rochester, priority 2013, published 2017).
# “Also recorded” adds a separate entry of the source.
# Experiments:
# [1] = test system: normal astrocytes derived from the fetal human brain; experiment: growth of normal fetal astrocytes in vitro; type: cell-based; details: for concentrations at which growth of normal fetal astrocytes is slightly decreased / effect on growth of normal fetal astrocytes: 4 days after administration
# [2] = test system: normal astrocytes derived from the adult human brain; experiment: growth of normal adult astrocytes in vitro; type: cell-based; details: 4 days after administration
# breast carcinoma cells = details: literature; cited from earlier work
# [3] = test system: A2B5+ glioma TPCs (GCL) subcutaneous xenograft; experiment: subcutaneous heterotopic A2B5+ glioma TPC xenograft, tumor volume; type: in vivo, immunodeficient NOG mice; details: 37.5 mg/kg twice daily, oral gavage, starting 11 days post-subcutaneous injection, NOG mice
# Procedure: (§1) Dabigatran etexilate (Pradaxa) was obtained as 150 mg capsules from Boehringer Ingelheim (Ingelheim, Germany) for in vivo experiments. Each capsule was freshly dissolved in 4 ml of acidic water to yield 37.5 mg/ml. Dabigatran etexilate was dosed depending of the body weight of the mouse, twice a day, using oral gavage. For in vitro analysis, the chemical compound dabigatran etexilate (BIER-1048) was purchased from Cedarlane USA (S2154-5 mg) and dissolved in dimethylsulfoxide (DMSO) following manufacturer's instructions.
# Glioma cells and/or A2B5^+ TPCs (1-4E^+06 cells/animal) were collected, resuspended in 75 μl of media, and mixed (1:1) with Matrigel (9.8 mg/ml), prior to subcutaneous injection (150 μl, final volume) into the flanks of immunodeficient NOG mice (5-8 weeks) (1-4E^+06 cells/animal). Subcutaneous tumor growth was measured every other day morphometrically using vernier calipers, and tumor volumes were estimated according to the formula a^2b/2, where a and b are the shorter and longer diameters of the tumor, respectively. […] The remaining mice were gavaged at the same times with vehicle control (acidic water). […]
# To translate these findings into a clinically relevant approach, the anti-tumor activity of dabigatran was further evaluated in vivo. […] Tumor volume was then measured every other day using vernier calipers. […]
# [4] = test system: adherent glioma cells (U87, U251); experiment: in vitro expansion of adherent glioma cells cultured with 10% serum; type: cell-based, human; details: for effect on growth / number of adherent glioma cells (U87, U251): 4 days after administration, vs DMSO vehicle; for concentration at which a significant decrease in number of adherent glioma cells was observed: escalating doses
# Procedure: as §1
# (§2) The selective PAR-1 antagonist SCH79797 was purchased from Tocris Bioscience (Ellisville, Mo., USA) and dissolved in dimethylsulfoxide (DMSO) following manufacturer's instructions. The selective oral PAR-1 inhibitor SCH 530348 (Vorapaxar) was purchased from Axon medchem (Axon 1755) and reconstituted following manufacturer's instructions.
# (§3) The various physiological and pathophysiological effects exerted by PAR-1 activation have led to the development of multiple selective PAR-1 antagonists over the years (Garcia-Lopez et al., “Thrombin-Activated Receptors: Promising Targets for Cancer Therapy?” Curr Med Chem 17:109-128 (2010), which is hereby incorporated by reference in its entirety). […] On that basis, it was further asked whether pharmacological inhibition of PAR-1 can slow the growth of glioma cells and A2B5^+ TPCs. Adherent glioma cells grown in 10% Serum (U87, U251) and A2B5^+ TPCs derived from primary GBM cell lines cultured in SFM were subjected to escalating doses of the PAR-1 antagonists SCH-79797.
# (§4) Indeed, SCH-530348 represents currently the most advanced and orally available specific PAR-1 antagonist, and has been evaluated in two large phase III clinical trials in patients with cardiovascular disease. […] To examine its effect on glioma cells and TPCs, SCH-530348 was administrated with escalating doses to glioma cells following the same paradigm previously described. […] Importantly, normal adult astrocytes were not affected by SCH-530348 administration (FIG. 6C).
# (§5) Given the availability of already approved and relatively safe drugs by which the thrombin may be antagonized, the effect of pharmacological inhibition of thrombin using the oral inhibitor dabigatran etexilate (dabigatran) in vitro was next examined. Dabigatran (marketed as Pradaxa) is an oral inhibitor of thrombin, approved for use in patients with or at risk of thrombotic disorders (Lee and Ansell, “Direct Thrombin Inhibitors,” Br J Clin Pharmacol 72:581-592 (2011); Stangier, “Clinical Pharmacokinetics and Pharmacodynamics of the Oral Direct Thrombin Inhibitor Dabigatran Etexilate,” Clin Pharmacokinet 47:285-295 (2008), which are hereby incorporated by reference in their entirety). […] To examine whether dabigatran treatment might suppress the growth of glial neoplasms, glioma cells and TPCs were treated with escalating doses of dabigatran and counted 4 days after drug administration.
# [5] = test system: A2B5+ glioma TPCs (GCL) isolated from GBM-derived cell lines; experiment: in vitro expansion of A2B5+ glioma TPCs (GCL), cell count after escalating doses; type: cell-based, human; details: for concentration at which a significant decrease in number of A2B5+ TPCs was observed: escalating doses, vs vehicle; for effect on growth / number (in vitro expansion) of A2B5+ glioma TPCs: serum-free media with FGF, EGF, PDGF, 4 days after administration, vs DMSO vehicle
# Procedure: After dissociation, unsorted and A2B5 selected primary cells derived from tumor samples were seeded in a 6 well cell suspension plate at 100,000-200,000 cells/ml in DMEM/F12/N1 media containing FGF, EGF and PDGF (20 ng/ml) as previously described (Nunes et al., “Identification and Isolation of Multipotential Neural Progenitor Cells from the Subcortical White Matter of the Adult Human Brain,” Nat Med 9:439-447 (2003), which is hereby incorporated by reference in their entirety). Growth factors and media were renewed 3 times per week. […] The cells were tumorigenic in vivo after transplantation into the brains of immunodeficient mice, in which they generated tumors that recapitulated the histological and phenotypic features of the parental GBM.
# as §1, §2, §3, §4, §5
# [6] = stable patients with a history of myocardial infarction; literature; cited from earlier work
# [7] = literature; cited from earlier work
# angiogenesis = details: literature; cited from earlier work
# [8] = test system: several human and mouse cell lines; details: literature; cited from earlier work
smiles,measurement,setting,value
CCCCCCOC(=O)NC(=N)c1ccc(NCc2nc3cc(C(=O)N(CCC(=O)OCC)c4ccccn4)ccc3n2C)cc1 [dabigatran etexilate],concentrations at which growth of normal fetal astrocytes is slightly decreased,[1],> 0.5 µM
same,effect on growth of normal fetal astrocytes,[1]; listed as Dabigatran etexilate,slightly decreases the growth of normal fetal astrocytes
same,effect on growth of normal fetal astrocytes,[1]; listed as dabigatran,not significantly affected
same,effect on growth of normal adult astrocytes,[2]; listed as Dabigatran etexilate,did not affect the growth of normal adult astrocytes
same,effect on growth of normal adult astrocytes,[2]; listed as dabigatran,not significantly affected
same,breast cancer progression,breast carcinoma cells,reduce breast cancer progression
same,invasiveness of breast carcinoma cells in mice,breast carcinoma cells,inhibits the invasiveness of breast carcinoma cells
same,effect on tumor volumes compared to vehicle controls,[3],significant reduction in tumor volumes; also recorded: significantly suppressed glioma growth; also recorded: significantly reduced tumor volumes
same,effect on tumor volumes compared to vehicle controls,[3]; listed as Pradaxa,significantly reduce the tumor volumes
same,"effect on growth / number of adherent glioma cells (U87, U251)",[4]; listed as Dabigatran etexilate,significantly decreases the number of GCL and glioma cells in a dose dependent manner
same,"effect on growth / number of adherent glioma cells (U87, U251)",[4]; listed as dabigatran,decreased in vitro expansion in a dose dependent manner
same,concentration at which a significant decrease in number of adherent glioma cells was observed,[4],≥ 10 µM
same,concentration at which a significant decrease in number of A2B5+ TPCs was observed,[5],5 µM
same,effect on growth / number (in vitro expansion) of A2B5+ glioma TPCs,[5],suppressed the growth and proliferation of glioma TPCs in vitro
same,effect on growth / number (in vitro expansion) of A2B5+ glioma TPCs,[5]; listed as Dabigatran etexilate,significantly decreases the number of GCL and glioma cells in a dose dependent manner
same,effect on growth / number (in vitro expansion) of A2B5+ glioma TPCs,[5]; listed as dabigatran,decreased in vitro expansion in a dose dependent manner; also recorded: potent inhibitors of glioma growth in vitro
"CCOC(=O)N[C@@H]1CC[C@@H]2[C@@H](C1)C[C@H]1C(=O)O[C@H](C)[C@H]1[C@H]2/C=C/c1ccc(-c2cccc(F)c2)cn1 [SCH530348, Vorapaxar]",major cardiovascular thrombotic events,[6],significantly reduced major cardiovascular thrombotic events
same,concentrations at which growth of normal fetal astrocytes is slightly decreased,[1],> 0.5 µM
same,effect on growth of normal fetal astrocytes,[1],slightly decreases the growth of normal fetal astrocytes
same,oral bioavailability,[7],excellent
same,safety,[7],excellent
same,effect on growth of normal adult astrocytes,[2],did not affect the growth of normal adult astrocytes
same,effect on growth of normal adult astrocytes,[2]; listed as SCH-530348,not affected
same,"effect on growth / number of adherent glioma cells (U87, U251)",[4],significantly decreases the number of GCL and glioma cells in a dose dependent manner
same,"effect on growth / number of adherent glioma cells (U87, U251)",[4]; listed as SCH-530348,significant decrease in the number of glioma cells
same,concentration at which a significant decrease in number of adherent glioma cells was observed,[4],25 µM
same,concentration at which a significant decrease in number of A2B5+ TPCs was observed,[5],≥ 5 µM
same,effect on growth / number (in vitro expansion) of A2B5+ glioma TPCs,[5],potent inhibitors of glioma growth in vitro; also recorded: suppressed the growth and proliferation of glioma TPCs in vitro; also recorded: significantly decreases the number of GCL and glioma cells in a dose dependent manner
same,effect on growth / number (in vitro expansion) of A2B5+ glioma TPCs,[5]; listed as SCH-530348,significantly reduced the growth
"CC(C)c1ccc(Cn2ccc3c4c(N)nc(NC5CC5)nc4ccc32)cc1 [SCH79797, N3-Cyclopropyl-7-[[4-(1-Methylethyl)Phenyl]Methyl]-7H-Pyrrolo[3,2-f]Quinazoline-1,3-Diamine]",effect on growth of normal fetal astrocytes,[1],did not affect the growth of normal fetal and adult astrocytes
same,effect on growth of normal fetal astrocytes,[1]; listed as SCH-79797,able to slow the growth of normal fetal astrocytes
same,concentration at which a significant decrease in number of fetal astrocytes was observed,[1]; escalating doses,≥ 0.5 µM
same,anti-angiogenic activity in vivo,angiogenesis,potent anti-angiogenic in vivo
same,effect on growth of normal adult astrocytes,[2],did not affect the growth of normal fetal and adult astrocytes
same,effect on growth of normal adult astrocytes,[2]; listed as SCH-79797,no significant differences
same,"effect on growth / number of adherent glioma cells (U87, U251)",[4],significantly decreases the number of GCL and glioma cells in a dose dependent manner
same,"effect on growth / number of adherent glioma cells (U87, U251)",[4]; listed as SCH-79797,significant concentration dependent inhibition of cell growth
same,concentration at which a significant decrease in number of adherent glioma cells was observed,[4],≥ 0.1 µM
same,"effect on proliferation, migration and growth of several human and mouse cell lines",[8],"showed anti-proliferative effects, blocked cell migration and growth"
same,concentration at which a significant decrease in number of A2B5+ TPCs was observed,[5],≥ 0.1 µM
same,effect on growth / number (in vitro expansion) of A2B5+ glioma TPCs,[5],potent inhibitors of glioma growth in vitro; also recorded: suppressed the growth and proliferation of glioma TPCs in vitro; also recorded: significantly decreases the number of GCL and glioma cells in a dose dependent manner
same,effect on growth / number (in vitro expansion) of A2B5+ glioma TPCs,[5]; listed as SCH-79797,significant concentration dependent inhibition of cell growth
